Measured values from patent US6706664B1, “Benzoxazole compounds, process for the preparation thereof and herbicides” (UBE Industries, Ltd., priority 1999, dated 2004).

Legend:
Design in all cases: key: 0: normal development; 1: Less damaged; 2: Slightly damaged; 3: Moderately damaged; 4: Severely damaged; 5: All killed
[1] = tested on: barnyardgrass; test: Herbicidal test for paddy field; type: in vivo, Echinochloa crusgalli; details: paddy field pot, 500 g/ha dropwise at 1.5 leaf stage of barnyardgrass, 3 weeks, rank vs non-treated
Procedure, shortened: (§1)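 Scores run on a six-point scale from 0 for normal development to 5 for all plants killed, judged against non-treated pots. Plants were grown in Ube soil under 3 cm of standing water and treated by pipet with 500 g/ha of the compound once barnyardgrass had 1.5 leaves. Assessment followed 3 weeks in a glasshouse averaging 25° C.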

[2] = tested on: monochoria; test: Herbicidal test for paddy field; type: in vivo, Monochoria vaginalis; details: paddy field pot, 500 g/ha dropwise at 1.5 leaf stage of barnyardgrass, 3 weeks, rank vs non-treated
Procedure, shortened: as §1

[3] = tested on: Large crabgrass; test: Soil treatment test for upland field; type: in vivo, Digitaria adscendens; details: 500 g/ha, glass house 25° C., 3 weeks
Procedure, shortened: (§2)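 Soil treatment, 500 g/ha, sprayed onto soil surface after sowing; alluvial Ube soil; 0.05% surfactant in diluent; glasshouse, avg 25° C, 3 wk; visual score 0–5 (5 = all killed).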

[4] = tested on: barnyardgrass; test: Soil treatment test for upland field; type: in vivo, Echinochloa crusgalli; details: 500 g/ha, glass house 25° C., 3 weeks
Procedure, shortened: as §2

[5] = tested on: green foxtail; test: Soil treatment test for upland field; type: in vivo, Setaria viridis; details: 500 g/ha, glass house 25° C., 3 weeks
Procedure, shortened: as §2

[6] = tested on: blackgrass; test: Soil treatment test for upland field; type: in vivo, Alopecurus aegualis; details: 500 g/ha, glass house 25° C., 3 weeks
Procedure, shortened: as §2

[7] = tested on: annual bluegrass; test: Soil treatment test for upland field; type: in vivo, Poa annua; details: 500 g/ha, glass house 25° C., 3 weeks
Procedure, shortened: as §2

[8] = tested on: common lambsquartes; test: Soil treatment test for upland field; type: in vivo, Chenopodium album; details: 500 g/ha, glass house 25° C., 3 weeks
Procedure, shortened: as §2

[9] = tested on: livid amaranth; test: Soil treatment test for upland field; type: in vivo, Amaranthus lividus; details: 500 g/ha, glass house 25° C., 3 weeks
Procedure, shortened: as §2

[10] = tested on: velvetleaf; test: Soil treatment test for upland field; type: in vivo, Abutilon theophrasti; details: 500 g/ha, glass house 25° C., 3 weeks
Procedure, shortened: as §2

[11] = tested on: corn; test: Foliar spread test for upland field; type: in vivo; details: foliar spray 500 ppm, 3 weeks, rank vs non-treated
Procedure, shortened: (§3)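 Seeds are planted in pots of volcanic ash soil and grown roughly 2 weeks under glass. Foliage then receives a uniform spray of compound at 500 ppm in water with 0.5% surfactant. Herbicidal damage is rated 0–5 after 3 weeks at an average 25° C.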

[12] = tested on: solgum; test: Foliar spread test for upland field; type: in vivo; details: foliar spray 500 ppm, 3 weeks, rank vs non-treated
Procedure, shortened: as §3

[13] = tested on: green foxtail; test: Foliar spread test for upland field; type: in vivo, Setaria viridis; details: foliar spray 500 ppm, 3 weeks, rank vs non-treated
Procedure, shortened: (§4)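 Scoring used a 0–5 scale, where 0 meant normal development and 5 meant all plants killed, assessed 3 weeks after treatment. Plants had been grown about 2 weeks from seed in volcanic ash soil before a uniform spray at 500 ppm containing 0.5% surfactant.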

[14] = tested on: blackgrass; test: Foliar spread test for upland field; type: in vivo, Alopecurus aegualis; details: foliar spray 500 ppm, 3 weeks, rank vs non-treated
Procedure, shortened: as §4

[15] = tested on: annual bluegrass; test: Foliar spread test for upland field; type: in vivo, Poa annua; details: foliar spray 500 ppm, 3 weeks, rank vs non-treated
Procedure, shortened: as §4

[16] = tested on: common lambsquartes; test: Foliar spread test for upland field; type: in vivo, Chenopodium album; details: foliar spray 500 ppm, 3 weeks, rank vs non-treated
Procedure, shortened: as §4

[17] = tested on: livid amaranth; test: Foliar spread test for upland field; type: in vivo, Amaranthus lividus; details: foliar spray 500 ppm, 3 weeks, rank vs non-treated
Procedure, shortened: as §4

[18] = tested on: velvetleaf; test: Foliar spread test for upland field; type: in vivo, Abutilon theophrasti; details: foliar spray 500 ppm, 3 weeks, rank vs non-treated
Procedure, shortened: as §4

What does the source list for `CCC(Oc1ccc(F)c(C(F)(F)F)c1)c1nc2cc(Cl)ccc2o1` (stereo not drawn) [Compound 139]?
Effect Barnyardgrass [1]: 5; Effect Monochoria [2]: 5; Effects Large crabgrass [3]: 5; Effects Barnyardgrass [4]: 3; Effects Green foxtail [5]: 5; Effects Blackgrass [6]: 5; Effects Annual bluegrass [7]: 5; Effects Common lambsquarters [8]: 4; Effects Livid amaranth [9]: 5; Effects Velvetleaf [10]: 5; Effects Corn [11]: 3; Effects Solgum [12]: 2; Effects Green foxtail [13]: 4; Effects Blackgrass [14]: 2; Effects Annual bluegrass [15]: 3; Effects Common lambsquarters [16]: 5; Effects Livid amaranth [17]: 5; Effects Velvetleaf [18]: 3
